Active and inactive are the calls of the source. The rule behind the calls is not given here.
Key:
Mus musculus [1] = experiment: Analgesic activity in Kunming mouse at 30 pmol, icv pre-treated with 10 nmol, icv opioid receptor antagonist beta-funaltrexamine by radiant heat tail flick test; assay type: functional, organism-based
[2] = Drug level in Kunming mouse brain at 1 mg/kg, iv after 5 to 240 mins by LC-MS/MS analysis; assay type: ADME, organism-based; conditions: in vivo, time 5-240 min
[3] = target: T1, Neuropeptide FF receptor 1 (Homo sapiens, UniProt Q9GZQ6); experiment: Agonist activity at NPFFR1 (unknown origin) expressed in HEK293-A cells assessed as inhibition of forskolin-stimulated cAMP accumulation incubated for 30 mins by competition PKA binding assay relative to control; assay type: functional, cell-based; conditions: filed as agonist
[4] = Half life in 100% mouse plasma at 0.01 mM by RP-HPLC analysis; assay type: ADME, cell-free
Mus musculus [5] = experiment: Analgesic activity in icv dosed Kunming mouse dosed once daily for 8 consecutive days by radiant heat tail flick test; assay type: functional, organism-based; conditions: time 8.0 day
Mus musculus [6] = experiment: Analgesic activity in sc dosed Kunming mouse assessed as time duration during which antinociception lasted by radiant heat tail flick test; assay type: functional
[7] = target: T2, Delta-type opioid receptor (Homo sapiens, UniProt P41143); experiment: Agonist activity at delta opioid receptor (unknown origin) expressed in HEK293-A cells assessed as inhibition of forskolin-stimulated cAMP accumulation incubated for 30 mins by competition PKA binding assay relative to control; assay type: functional, cell-based; conditions: filed as agonist
[8] = target: T3, Neuropeptide FF receptor 2 (Homo sapiens, UniProt Q9Y5X5); experiment: Agonist activity at NPFFR2 (unknown origin) expressed in HEK293-A cells assessed as inhibition of forskolin-stimulated cAMP accumulation incubated for 30 mins by competition PKA binding assay; assay type: functional, cell-based
Mus musculus [9] = experiment: Analgesic activity in sc dosed Kunming mouse by radiant heat tail flick test; assay type: functional
[10] = Toxicity in Kunming mouse assessed as effect on motor coordination at 30 pmol, icv by rotarod test; conditions: in vivo, icv_or_intrathecal
[11] = target: T3, Neuropeptide FF receptor 2; experiment: Agonist activity at NPFFR2 (unknown origin) expressed in HEK293-A cells assessed as inhibition of forskolin-stimulated cAMP accumulation incubated for 30 mins by competition PKA binding assay relative to control; assay type: functional, cell-based; conditions: filed as agonist
[12] = Toxicity in Kunming mouse assessed as effect on motor coordination at 0.09 umol/kg, sc by rotarod test; assay type: organism-based; conditions: in vivo, dose 0.09 µmol/kg
[13] = Toxicity in Kunming mouse assessed as activation of reward circuits at 0.09 umol/kg, sc by CPP test; assay type: organism-based; conditions: in vivo, dose 0.09 µmol/kg
[14] = Ratio of drug level in brain to plasma in Kunming mouse brain at 1 mg/kg, iv after 5 to 240 mins by LC-MS/MS analysis; assay type: ADME, organism-based; conditions: time 5-240 min, read-out: BPR
[15] = Toxicity in Kunming mouse assessed as increase in jumping counts after naloxone-injection at 0.09 umol/kg, sc by naloxone-precipitated withdrawal test; assay type: organism-based; conditions: in vivo, dose 0.09 µmol/kg
[16] = Induction of constipation in sc dosed Kunming mouse assessed as inhibition of gastrointestinal motility by charcoal based gastrointestinal motility test; assay type: organism-based; conditions: in vivo
[17] = target: T2, Delta-type opioid receptor; experiment: Agonist activity at delta opioid receptor (unknown origin) expressed in HEK293-A cells assessed as inhibition of forskolin-stimulated cAMP accumulation incubated for 30 mins by competition PKA binding assay; assay type: functional, cell-based
Mu-type opioid receptor = Mu-type opioid receptor (Homo sapiens, UniProt P35372); experiment: Agonist activity at mu opioid receptor (unknown origin) expressed in HEK293-A cells assessed as inhibition of forskolin-stimulated cAMP accumulation incubated for 30 mins by competition PKA binding assay; assay type: functional, cell-based
Mus musculus [18] = experiment: Analgesic activity in Kunming mouse at 30 pmol, icv by radiant heat tail flick test; assay type: functional
[19] = target: T1, Neuropeptide FF receptor 1; experiment: Agonist activity at NPFFR1 (unknown origin) expressed in HEK293-A cells assessed as inhibition of forskolin-stimulated cAMP accumulation incubated for 30 mins by competition PKA binding assay; assay type: functional, cell-based
Mus musculus [20] = experiment: Analgesic activity in Kunming mouse at 0.09 umol/kg, sc by radiant heat tail flick test; assay type: functional; conditions: dose 0.09 µmol/kg
[21] = Half life in 15% mouse brain at 0.01 mM by RP-HPLC analysis; assay type: ADME, tissue-based
Mus musculus [22] = experiment: Analgesic activity in Kunming mouse assessed as increase in antinociceptive effect at 0.03 pmol, icv pre-treated with 10 nmol, icv NPFF receptor antagonist RF9 by radiant heat tail flick test; assay type: functional, organism-based
[23] = Toxicity in Kunming mouse assessed as increase in total travelled distance at 0.09 umol/kg, sc by open field assay; assay type: organism-based; conditions: in vivo, dose 0.09 µmol/kg
Mus musculus [24] = experiment: Analgesic activity in sc dosed Kunming mouse dosed once daily for 8 consecutive days by radiant heat tail flick test; assay type: functional, organism-based; conditions: time 8.0 day
[25] = Drug level in Kunming mouse plasma at 1 mg/kg, iv after 5 to 240 mins by LC-MS/MS analysis; assay type: ADME, organism-based; conditions: time 5-240 min
[26] = target: Kappa-type opioid receptor (Homo sapiens, UniProt P41145); experiment: Agonist activity at kappa opioid receptor (unknown origin) expressed in HEK293-A cells assessed as inhibition of forskolin-stimulated cAMP accumulation incubated for 30 mins by competition PKA binding assay; assay type: functional, cell-based; conditions: read-out: EC50
[27] = Safety index, ratio of ED50 for induction of constipation in sc dosed Kunming mouse to ED50 for analgesic activity in sc dosed Kunming mouse; assay type: organism-based; conditions: in vivo, read-out: Ratio ED50
Mus musculus [28] = experiment: Analgesic activity in icv dosed Kunming mouse by radiant heat tail flick test; assay type: functional
Mus musculus [29] = experiment: Analgesic activity in icv dosed Kunming mouse assessed as time duration during which supraspinal antinociception lasted by radiant heat tail flick test; assay type: functional

N=C(N)NCCC[C@H](NC(=O)[C@H](CCC(N)=O)NC(=O)[C@@H]1CCCN1C(=O)[C@@H]1CSSC[C@@H](NC(=O)[C@@H](N)Cc2ccc(O)cc2)C(=O)NCC(=O)N[C@@H](Cc2ccccc2)C(=O)N1)C(=O)N[C@@H](Cc1ccccc1)C(N)=O
Activity (Mus musculus [1]): inactive
Drug uptake [2]: 3.87 µg·min/g
Emax [3]: 75.9%
half-life at 10 µM [4]: 0.893 h
Activity (Mus musculus [5]): Active
Time (Mus musculus [6]): 4 h
Emax [7]: 65.1%
EC50 [8]: 19.2 nM
Activity (Mus musculus [9]): Dose-dependent effect
ED50 (Mus musculus [9]): 0.003 µmol/kg
Activity [10]: Non-Toxic
Emax [11]: 53.3%
Activity [12]: Non-Toxic
Activity [13]: Non-Toxic
Kp [14]: 1.02
Activity [15]: Non-Toxic
Activity [16]: Dose-dependent effect
ED50 [16]: 2.25 µmol/kg
EC50 [17]: 174 nM
EC50 (Mu-type opioid receptor): 43.1 nM
MPE (Mus musculus [18]): 90%
EC50 [19]: 7.5 nM
Activity (Mus musculus [20]): 80%
half-life at 10 µM [21]: 2.88 h
Activity (Mus musculus [22]): Active
Activity [23]: Non-Toxic
Activity (Mus musculus [24]): Active
AUC [25]: 63 ng·h/mL
EC50 [26]: 866 nM
selectivity ratio [27]: 750
ED50 (Mus musculus [28]): 0.014 pmol
Activity (Mus musculus [29]): Dose-dependent effect
Time (Mus musculus [29]): 3 h
